Assay results taken from ChEMBL document CHEMBL3045882, “Synthesis and biological activity evaluation of novel β-substituted nitromethylene neonicotinoid analogues” (2012).

Columns and labels:
Aphis craccivora [1] = assay: Insecticidal activity against Aphis craccivora (cowpea aphid) infected soybean tender shoots assessed as mortality at 500 mg/L after 24 hr; type: functional
Aphis craccivora [2] = assay: Insecticidal activity against Aphis craccivora (cowpea aphid) infected soybean tender shoots after 24 hr; type: functional

Row | Structure (SMILES) | mortality at 500 µg/mL (Aphis craccivora [1]) | LC50 (Aphis craccivora [2])
1 | N#CS/C(=C1\Nc2ccccc2N1Cc1ccc(Cl)nc1)[N+](=O)[O-] | 87.8% | 
2 | N#CS/C(=C1\NCCCN1Cc1ccc(Cl)nc1)[N+](=O)[O-] | 100% | 24.9 µM
3 | N=c1sc([N+](=O)[O-])c2n1CCN2Cc1ccc(Cl)nc1 | 100% | 26.8 µM
4 | N#CS/C(=C1\NCCN1Cc1cnc(Cl)s1)[N+](=O)[O-] | 100% | 9.74 µM
5 | Cn1c(NCc2ccc(Cl)nc2)c([N+](=O)[O-])sc1=N | 100% | 118 µM
6 | N=c1sc([N+](=O)[O-])c2n1CCN2Cc1ccc(C(F)(F)F)nc1 | 100% | 24.5 µM
7 | N#CS/C(=C1\NCCN1Cc1ccc(C(F)(F)F)nc1)[N+](=O)[O-] | 100% | 18.9 µM
8 | N=c1sc([N+](=O)[O-])c2n1CCN2Cc1ccccc1 | 16.2% | 
9 | N#CS/C(C#N)=C1\NCCN1Cc1ccc(Cl)nc1 | 34.6% | 
10 | CCN(Cc1ccc(Cl)nc1)c1c([N+](=O)[O-])sc(=N)n1C | 57.6% | 
11 | N=c1sc([N+](=O)[O-])c2n1CCCN2Cc1ccc(Cl)nc1 | 100% | 22 µM
12 | CCn1c(NCc2ccc(Cl)nc2)c([N+](=O)[O-])sc1=N | 50.8% | 
13 | N#CS/C(=C1\NCCN1Cc1ccccc1)[N+](=O)[O-] | 24% | 
14 | N#CS/C(=C1\NCCN1Cc1ccc(Cl)nc1)[N+](=O)[O-] | 100% | 15.7 µM
15 | N#CS/C(C#N)=C1\NCCN1Cc1cnc(Cl)s1 | 0% | 
16 | N=c1sc([N+](=O)[O-])c2n1CCN2Cc1cnc(Cl)s1 | 100% | 17.8 µM
17 | N#Cc1sc(=N)n2c1N(Cc1ccc(Cl)nc1)CC2 | 32.4% | 
